In patent EP1764363A2, “Substituted acetophenonederivatives” (Riemser Arzneimittel AG, priority 2005, dated 2007):
Converted amounts (≈) assume the structure as drawn.

Key:
[1] = tested on: Staphylococcus aureus (Stamm ATCC 6538); assay: Mouse ear test (in vivo), antiseptic effect; design: key to Keimwachstum (grade): +++: totale Verhinderung des Keimwachstums; ++: Keimwachstum deutlich reduziert aber nicht völlig unterdrückt; settings: mouse ears infected with S. aureus ATCC 6538; germ count vs infected untreated animal after 18 and 24 h
Rhodococcus equi = assay: Minimal inhibitory concentration (MHK), microtitre plate, TTC staining; type: cell-based; settings: 48h, 36°C
Salmonella sp = assay: as above; type: cell-based; settings: 48h, 36°C
Excerpt: Das Inokulum für die Tests wurde durch Verdünnung der Mikroorganismen in wässriger 0,85% NaCI-Lösung hergestellt, die Verdünnung auf die Stufe 0,5 nach McFarland eingestellt und die Konzentration spektrometrisch bei einer Wellenlänge von 580nm überprüft. Die Zellsuspensionen wurden zur Verwendung in den Tests auf 10^4 UFC/ml verdünnt. Die MHK-Tests erfolgten (Vorschrift nach J. N. P. Eloff, Planta Medica, Vol. 64, 1998, p 711-713) in Mikrotiterplatten mit 96 Vertiefungen. Serienverdünnungen der Konzentrationen lagen im Bereich 1,00 - 0,0015 mg/mL. Als Kontrollsubstanzen dienten Chloramphenicol bzw. Nistatin (Merck) in einer Konzentration von 0,062 - 0,005 mg/ml bzw. 0,0125 - 0,001 mg/ml. Das Inokulum (100 µl) wurde in alle Vertiefungen gegeben und die Platten für 48h bei 36°C inkubiert. Die antimikrobielle Aktivität wurde durch Zugabe von 20 µl einer 0,5% igen wässrigen Lösung von TTC (Tetrazoliumchlorid, Merck) pro Vertiefung detektiert. Die minimale Hemmkonzentration (MHK) wird als die niedrigste Konzentration der Verbindung definiert die das sichtbare Wachstum hemmt (durch TTC-Färbung indiziert).

Escherichia coli = assay: as above; type: cell-based; settings: 48h, 36°C
E. faecium = assay: as above; type: cell-based; settings: 48h, 36°C
S. falcium = assay: as above; type: cell-based; settings: 48h, 36°C
Micrococcus luteus = assay: as above; type: cell-based; settings: 48h, 36°C
S. aureus = assay: as above; type: cell-based; settings: 48h, 36°C
Bacillus subitilis = assay: as above; type: cell-based; settings: 48h, 36°C
S. epidermides = assay: as above; type: cell-based; settings: 48h, 36°C
LNCaP = assay: Chemosensitivity test (modified MTT test EZ4U); settings: Homo sapiens, 96 h, read-out: IC50-Werte
Excerpt: (§1) Die Verbindungen wurden in Dimethylsulfoxid (DMSO) als konzentrierte Stammlösungen (100-400fach) gelöst und für Proliferationstests in Zellkulturmedium verdünnt.
(§2) Mit Ausnahme von SIM, KAL Ewingsarkom (in Wien etabliert) und LAN Neuroblastom (University of Los Angeles) wurden die Zell-Linien von der American Type Culture Collection (ATCC, Rockville, MD) bezogen und zum Erhalt von konfluenten Monolayerkulturen in RPMI-1640 Bikarbonatmedium (Seromed, Berlin, Deutschland) in einem Zellkulturschrank (5% CO2, 37°C) kultiviert. Mit der Ausnahme der murinen NlH3T3 Fibroblasten sind alle verwendeten Zell-Linien humanen Ursprungs. Die Zellen wurden auf Verunreinigung durch Mycoplasmen untersucht. Das Medium wurde mit 10% hitzeinaktiviertem foetalem Kälberserum (Seromed) and 4 mM Glutamin ergänzt. Die Zellen wurden durch Trypsinierung subkultiviert (0.03% Trypsin enthaltend 0.02% EDTA, dreimal pro Woche). Die Trypsinierung wurde durch Verwendung vom komplettem Zellkulturmedium gestoppt. Die Zellzahl wurde unter Verwendung eines TOA Sysmex Microzellzählers (TOA, Tokyo, Japan) bestimmt.
(§3) 10^4 Zellen/well wurden in Mikrotiterplatten mit 96 Vertiefungen (100 µl Medium) verteilt und die zu testenden Verbindungen wurden in einem weiteren Volumen von 100 µl hinzugegeben. […]

KAL = assay: Chemosensitivity test (modified MTT test EZ4U); settings: Homo sapiens, 96 h, read-out: IC50-Werte
Excerpt: as §1, §2, §3

SKOV3 = assay: Chemosensitivity test (modified MTT test EZ4U); settings: Homo sapiens, SK-OV-3, 96 h, read-out: IC50-Werte
Experimental: as §1
(§4) Die Zellen wurden auf Verunreinigung durch Mycoplasmen untersucht. Das Medium wurde mit 10% hitzeinaktiviertem foetalem Kälberserum (Seromed) and 4 mM Glutamin ergänzt. Die Zellen wurden durch Trypsinierung subkultiviert (0.03% Trypsin enthaltend 0.02% EDTA, dreimal pro Woche). Die Trypsinierung wurde durch Verwendung vom komplettem Zellkulturmedium gestoppt. Die Zellzahl wurde unter Verwendung eines TOA Sysmex Microzellzählers (TOA, Tokyo, Japan) bestimmt.
(§5) 10^4 Zellen/well wurden in Mikrotiterplatten mit 96 Vertiefungen (100 µl Medium) verteilt und die zu testenden Verbindungen wurden in einem weiteren Volumen von 100 µl hinzugegeben. Alle Verbindungen wurden entweder in 3 fixen Konzentrationen eingesetzt (für Tabellen 1-3) oder in 10 Stufen verdünnt unter Verwendung von Zweifachverdünnungsschritten zur Bestimmung der IC50-Werte (dreifache Ansätze, in den meisten Fällen vierfache Ansätze). […]

WI38 = assay: Chemosensitivity test (modified MTT test EZ4U); settings: for IC50: Homo sapiens, WI-38, 96 h, read-out: IC50-Werte; for Zellwachstum in % der Mediumkontrolle: 4 days
Experimental: as §1, §4
(§6) 10^4 Zellen/well wurden in Mikrotiterplatten mit 96 Vertiefungen (100 µl Medium) verteilt und die zu testenden Verbindungen wurden in einem weiteren Volumen von 100 µl hinzugegeben. Alle Verbindungen wurden entweder in 3 fixen Konzentrationen eingesetzt (für Tabellen 1-3) oder in 10 Stufen verdünnt unter Verwendung von Zweifachverdünnungsschritten zur Bestimmung der IC50-Werte (dreifache Ansätze, in den meisten Fällen vierfache Ansätze). Die Platten wurden, mit der Ausnahme der Tests zur Untersuchung des Zusammenhangs von Applikationsdauer und Zellreaktion, 4 Tage lang unter Zellkulturbedingungen inkubiert und die Zellviabilität wurde unter Verwendung eines modifizierten MTT Tests bestimmt (Formazan-Farbstoffbildung aus Tetrazoliumsalzen wie MTT, XTT, WST-1 und anderen durch das mitochondriale Reduktionsystem Succinattetrazolium Reductase EC 1.3.99.1.; EZ4U nichtradioaktiver Zellproliferations- und Cytotoxizitätstest, Biomedica, Wien, Österreich; Testmanual unter: www.bmgrp.com). Hierbei wurde die mitochondriale Aktivität und dadurch die Zellviabilität/Zellzahl bestimmt. Kurz gesagt wurde das gelieferte Substrat in einer Aktivatorlösung gelöst und 20 µl der Mischung wurden für 2 Stunden pro Vertiefung hinzugegeben (Gesamtvolumen 200 µl). Die optische Dichte wurde bei 450 nm unter Verwendung einer leeren Vertiefung als Referenz in einem Mikroplattenlesegerät (Eurogenetics, Brüssel, Belgien) bestimmt. Für jede Zell-Line wurden Vertiefungen verwendet um das MTT-Signal der Mediumkontrollen ohne Testsubstanzen zu bestimmen. Die Proliferation in den Test-Vertiefungen wurde in Bezug auf diese Kontrollwerte (100%) errechnet. Die Testergebnisse wurden zwischen 0,3 und 1,5 optischer Dichte für langsam bzw. schnellproliferierende Zellen erfasst. Diese Dosis-Wirkungs-Beziehungen wurden verwendet um die IC50 (Konzentration bei der das Wachstum um 50% gehemmt wird) unter Verwendung von PRISM Scientific Software (GraphPad Inc., San Diego, CA) zu berechnen.

CRO2B = assay: Chemosensitivity test (modified MTT test EZ4U); settings: Homo sapiens, 96 h, read-out: IC50-Werte
Experimental: as §1, §4, §6

T47D [2] = assay: Chemosensitivity test (modified MTT test EZ4U); settings: 4 days
Experimental: as §1, §4, §6

LAN1 = assay: Chemosensitivity test (modified MTT test EZ4U); settings: Homo sapiens, LAN1, 96 h, read-out: IC50-Werte
Experimental: as §1, §4, §5

U87MG = assay: Chemosensitivity test (modified MTT test EZ4U); settings: Homo sapiens, U-87 MG, 96 h, read-out: IC50-Werte
Excerpt: as §1, §2, §3

SW620 = assay: Chemosensitivity test (modified MTT test EZ4U); settings: Homo sapiens, SW-620, 96 h, read-out: IC50-Werte
Experimental: as §1, §4, §6

Colo205 [3] = assay: Cell count determination in a proliferation test; settings: Homo sapiens, COLO 205, read-out: Inhibition des Zellenwachstums (in %)
Excerpt: as §1
(§7) Mit Ausnahme von SIM, KAL Ewingsarkom (in Wien etabliert) und LAN Neuroblastom (University of Los Angeles) wurden die Zell-Linien von der American Type Culture Collection (ATCC, Rockville, MD) bezogen und zum Erhalt von konfluenten Monolayerkulturen in RPMI-1640 Bikarbonatmedium (Seromed, Berlin, Deutschland) in einem Zellkulturschrank (5% CO2, 37°C) kultiviert. […] Die Zellen wurden auf Verunreinigung durch Mycoplasmen untersucht. Das Medium wurde mit 10% hitzeinaktiviertem foetalem Kälberserum (Seromed) and 4 mM Glutamin ergänzt. Die Zellen wurden durch Trypsinierung subkultiviert (0.03% Trypsin enthaltend 0.02% EDTA, dreimal pro Woche). Die Trypsinierung wurde durch Verwendung vom komplettem Zellkulturmedium gestoppt. Die Zellzahl wurde unter Verwendung eines TOA Sysmex Microzellzählers (TOA, Tokyo, Japan) bestimmt.
(§8) Die Zellen wurden in Makroplatten mit 6 Vertiefungen (Greiner, Kremsmünster, Österreich) in einer anfänglichen Zelldichte von 200 000 Zellen/Vertiefung in 4 ml Medium unter Zellkulturbedingungen in Anwesenheit oder Abwesenheit der Testverbindungen (doppelte Ansätze) kultiviert. […]

SIM = assay: Chemosensitivity test (modified MTT test EZ4U); settings: Homo sapiens, 96 h, read-out: IC50-Werte
Excerpt: as §1, §2, §3

J82 = assay: Chemosensitivity test (modified MTT test EZ4U); settings: Homo sapiens, J82, 96 h, read-out: IC50-Werte
Experimental: as §1, §4, §5

CaCo-2 = assay: Chemosensitivity test (modified MTT test EZ4U); settings: Homo sapiens, Caco-2, 96 h, read-out: IC50-Werte
Experimental: as §1, §4, §6

Colo205 [4] = assay: Chemosensitivity test (modified MTT test EZ4U); settings: 4 days
Experimental: as §1, §4, §6

MIAPaCa2 = assay: Chemosensitivity test (modified MTT test EZ4U); settings: for IC50: Homo sapiens, MIA PaCa-2, 96 h, read-out: IC50-Werte; for Zellwachstum in % der Mediumkontrolle: 4 days
Experimental: as §1, §4, §6

EW-7 = assay: Chemosensitivity test (modified MTT test EZ4U); settings: Homo sapiens, 96 h, read-out: IC50-Werte
Excerpt: as §1, §2, §3

T47D [5] = assay: Cell count determination in a proliferation test; settings: Homo sapiens, read-out: Inhibition des Zellenwachstums (in %)
Excerpt: as §1, §7, §8

BT20 = assay: Cell count determination in a proliferation test; settings: Homo sapiens, BT-20, read-out: Inhibition des Zellenwachstums (in %)
Excerpt: as §1, §7, §8

| Structure (SMILES) | Keimwachstum (grade) [1] | IC50 (LNCaP) [µg/mL] | IC50 (KAL) [µg/mL] | IC50 (SKOV3) [µg/mL] | IC50 (WI38) [µg/mL] | Zellwachstum in % der Mediumkontrolle (WI38; WI38 (Fibroblasten), 5 µg/ml) | Zellwachstum in % der Mediumkontrolle (WI38; WI38 (Fibroblasten), 10 µg/ml) | Zellwachstum in % der Mediumkontrolle (WI38; WI38 (Fibroblasten), 2,5 µg/ml) | IC50 (CRO2B) [µg/mL] | Zellwachstum in % der Mediumkontrolle (T47D [2]; T47D (Mamakarzinom), 5 µg/ml) | Zellwachstum in % der Mediumkontrolle (T47D [2]; T47D (Mamakarzinom), 10 µg/ml) | Zellwachstum in % der Mediumkontrolle (T47D [2]; T47D (Mamakarzinom), 2,5 µg/ml) | IC50 (LAN1) [µg/mL] | IC50 (U87MG) [µg/mL] | IC50 (SW620) [µg/mL] | inhibition at 50 µg/mL (Colo205 [3]) [%] | IC50 (SIM) [µg/mL] | IC50 (J82) [µg/mL] | IC50 (CaCo-2) [µg/mL] | Zellwachstum in % der Mediumkontrolle (Colo205 [4]; Colo205 (Colon), 5 µg/ml) | other results |
| --- | --- | --- | --- | --- | --- | --- | --- | --- | --- | --- | --- | --- | --- | --- | --- | --- | --- | --- | --- | --- | --- |
| COc1ccc(C=CC(=O)c2ccccc2O)cc1 [CH-1, 1-(2-Hydroxyphenyl)-3-(4-methoxyphenyl)propenon] | ++ |  |  |  |  |  |  |  |  |  |  |  |  |  |  |  |  |  |  |  |  |
| O=C(N[C@H](CO)[C@H](O)c1ccc([N+](=O)[O-])cc1)C(Cl)Cl [Chloramphenicol, reference compound] |  |  |  |  |  |  |  |  |  |  |  |  |  |  |  |  |  |  |  |  | MHK-Werte (Rhodococcus equi): 0,04 mg/ml; MHK-Werte (Salmonella sp): 0,06 mg/ml; MHK-Werte (Escherichia coli): 0,04 mg/ml; MHK-Werte (E. faecium): 0,12 mg/ml; MHK-Werte (S. falcium): 0,12 mg/ml; MHK-Werte (Micrococcus luteus): 0,05 mg/ml; MHK-Werte (S. aureus): 0,02 mg/ml; MHK-Werte (Bacillus subitilis): 0,02 mg/ml; MHK-Werte (S. epidermides): 0,04 mg/ml |
| O=C(/C=C/c1ccc(CO)o1)c1ccc(Cl)cc1 [HMF-2, 1-(4-Chlorophenyl)-3-(5-hydroxymethylfuran-2-yl)propenon] | +++ | 3.25 (≈ 12.4 µM) | 45 (≈ 171 µM) | 36 (≈ 137 µM) | 4.9 (≈ 18.7 µM) | 92,90% | 10,60% | 104,7% | 50 (≈ 190 µM) | 25,60% | 4,90% | 28,10% | 4.25 (≈ 16.2 µM) | > 200 | 0.85 (≈ 3.24 µM) | 35.6 | > 200 | 47 (≈ 179 µM) | 17.5 (≈ 66.6 µM) | 78,6% | Zellwachstum in % der Mediumkontrolle (Colo205 [4]; Colo205 (Colon), 10 µg/ml): 41,30%; Zellwachstum in % der Mediumkontrolle (Colo205 [4]; Colo205 (Colon), 2,5 µg/ml): 84,80%; IC50 (MIAPaCa2): 10 µg/mL (≈ 38.1 µM); Zellwachstum in % der Mediumkontrolle (MIAPaCa2; MIAPaCa2 (Pankreas), 5 µg/ml): 91,10%; Zellwachstum in % der Mediumkontrolle (MIAPaCa2; MIAPaCa2 (Pankreas), 10 µg/ml): 74,60%; Zellwachstum in % der Mediumkontrolle (MIAPaCa2; MIAPaCa2 (Pankreas), 2,5 µg/ml): 84,30%; IC50 (EW-7): 0.3 µg/mL (≈ 1.14 µM); inhibition at 50 µg/mL (T47D [5]): 75.6%; inhibition at 50 µg/mL (BT20): 74% |
| O=C(/C=C/c1ccc(CO)o1)c1ccccc1O [HMF-3, 3-(5-Hydroxymethylfuran-2-yl)-1-(2-hydroxyphenyl)-propenon] |  | 9.5 (≈ 38.9 µM) | > 200 | > 200 | 20 (≈ 81.9 µM) | 64,70% | 81,50% | 92% | > 200 | 50,00% | 50,20% | 39,10% | 20 (≈ 81.9 µM) | > 200 | 9.7 (≈ 39.7 µM) | 3.5 | > 200 | > 200 | > 200 | 68% | Zellwachstum in % der Mediumkontrolle (Colo205 [4]; Colo205 (Colon), 10 µg/ml): 82,60%; Zellwachstum in % der Mediumkontrolle (Colo205 [4]; Colo205 (Colon), 2,5 µg/ml): 85,90%; IC50 (MIAPaCa2): > 200 µg/mL; Zellwachstum in % der Mediumkontrolle (MIAPaCa2; MIAPaCa2 (Pankreas), 5 µg/ml): 81,80%; Zellwachstum in % der Mediumkontrolle (MIAPaCa2; MIAPaCa2 (Pankreas), 10 µg/ml): 50,60%; Zellwachstum in % der Mediumkontrolle (MIAPaCa2; MIAPaCa2 (Pankreas), 2,5 µg/ml): 84,10%; IC50 (EW-7): 5.25 µg/mL (≈ 21.5 µM); inhibition at 50 µg/mL (T47D [5]): 57%; inhibition at 50 µg/mL (BT20): 15.7% |
